# Measured values taken from US9988403B2, “Compositions and methods for treating cancer with aberrant lipogenic signaling” (Thomas Jefferson University, priority 2012, dated 2018).
# System: Drosophila
# Assay: Drosophila development, viability and life span on compound food
# Format: in vivo
smiles,measurement,setting,value
CC1(C)OB(c2ccc(/C=C/c3ccc(O)cc3)cc2)OC1(C)C [BF102],Drosophila development and viability,200 μM in food,do not affect
same,life span of adult flies,"adult flies fed food mixed with compound, data not shown",do not have any obvious effect
